Results as given in patent US20250213645A1, “PHARMACEUTICAL COMPOSITION FOR MODULATING IMMUNE RESPONSE” (L-BASE CO., LTD., priority 2021, published 2025).
Where a SMILES comes first, the peptide text is derived from it. Where no end group is shown, it is not given here.

Legend:
[1] = test system: CT26 cancer cells in which CAGE expression was induced; assay: Anticancer efficacy of compound and anti-PD-1, alone or combined, in syngeneic mouse model; format: in vivo; conditions: for absolute weight of the tumor: tumor removed on day 15, compound 10 mpk i.v. every 2 days, anti-PD-1 10 mg/kg i.p. every 3 days; for tumor volume (tumor growth): vs control, compound 10 mpk intravenously every 2 days, anti-PD-1 10 mg/kg intraperitoneally every 3 days, up to day 15
Description: (§1) CT26 cancer cells in which CAGE expression was induced were mixed with Matrigel in a ratio of 1:1, and 200 μL of the cell mixture was injected into a female BALB/c mouse at a concentration of 1×10^6 cells/mouse to produce a syngeneic mouse model. After cell inoculation was completed, when the volume of the formed tumor reached 70 to 120 mm^3, groups were randomly separated and drug administration was performed. A cancer immunotherapy drug (anti-PD-1) was intraperitoneally administered at intervals of 3 days at a concentration of 10 mg/kg (mpk), and the compounds according to the present invention, AQTGTGKT, 3-PhPh-AQTGTGKT, and naphthyl-AQTGTGKT, were administered intravenously at intervals of 2 days at a concentration of 10 mpk. The size of the tumor was measured twice a week to calculate a tumor volume, and the weight of a subject was also measured. On day 15 after the start of administration, the tumor was removed, and the absolute weight was measured.

[2] = test system: CT26 cancer cells in which CAGE expression was induced; assay: Overall survival (OS) period, Kaplan Meier analysis, syngeneic mouse model; format: in vivo; conditions: for 39 days, 3-PhPh-AQTGTGKT 10 mpk i.v. every 2 days, anti-CTLA4 5 mpk, anti-PD-1 10 mpk every 3 days
Description: Next, an overall survival (OS) period according to the single or combined administration of the compound of the present invention and the cancer immunotherapy drug was compared. CT26 cancer cells in which CAGE expression was induced were mixed with Matrigel in a ratio of 1:1, and 200 μL of the cell mixture was injected into a female BALB/c mouse at a concentration of 1×10^6 cells/mouse to produce a syngeneic mouse model. After cell inoculation was completed, when the volume of the formed tumor reached 70 to 120 mm^3, groups were randomly separated and drug administration was performed. The cancer immunotherapy drug (anti-CTLA4) was administered at intervals of 3 days at a concentration of 5 mpk, and the compound of the present invention (3-PhPh-AQTGTGKT) was intravenously administered at intervals of 2 days at a concentration of 10 mpk, and the survival rate of the subjects was analyzed using Kaplan Meier analysis.
Subsequently, the effect of the coadministration of the compound of the present invention and a different cancer immunotherapy drug on the survival rate of subjects was confirmed. CT26 cancer cells in which CAGE expression was induced were mixed with Matrigel in a ratio of 1:1, and 200 μL of the cell mixture was injected into a female BALB/c mouse at a concentration of 1×10^6 cells/mouse to produce a syngeneic mouse model. […]

T cells or macrophages = format: in vivo, mouse
Description: (§2) After administering the cancer immunotherapy drug and the compound of the present invention alone or in combination to a syngeneic mouse model produced using CT26 cells in which CAGE expression was induced, tumor tissue was isolated from each subject. The obtained tumor tissue was made into a paraffin block and then sectioned, and histological analysis was performed by performing H&E staining and microscopic observation on tissue slides. […] Fluorescent images were taken at 20× magnification using a confocal microscope, and the number of T cells and macrophages (M2- and M1-type macrophages) on the entire screen was then measured and analyzed.

[3] = test system: CT26 cells in which CAGE expression was induced; assay: Histological analysis of tumor tissue by H&E staining; format: in vivo, mouse; conditions: single or combined administration; FIG. 11A
Description: as §2

CXCL10 = CXCL10 mRNA expression in tumor tissue by real-time PCR; format: in vivo, mouse; conditions: relative to control, 2^-ΔΔCt method; FIG. 12
Description: After administering the cancer immunotherapy drug and the compound of the present invention alone or in combination to a syngeneic mouse model produced using CT26 cells in which CAGE expression was induced, tumor tissue was isolated from each subject. RNA was extracted from the obtained tumor tissue, cDNA was synthesized, and then an mRNA expression level of the CXCL10 gene was measured through real-time PCR. For each mRNA, a relative expression level compared to the control was calculated through the 2^−ΔΔ^Ct method.

[4] = test system: CT26 cancer cells in which CAGE expression was induced; assay: Anticancer efficacy of 3-PhPh-AQTGTGKT and anti-CTLA4, alone or combined, in syngeneic mouse model; format: in vivo; conditions: 3-PhPh-AQTGTGKT 10 mpk i.v. every 2 days, anti-CTLA4 5 mpk i.p. every 3 days
Description: as §1, with “(anti-CTLA4)” for “(anti-PD-1)”, “5 mpk,” for “10 mg/kg (mpk),”, “compound of” for “compounds according to”, “invention (3-PhPh-AQTGTGKT) was intravenously” for “invention, AQTGTGKT, 3-PhPh-AQTGTGKT, and naphthyl-AQTGTGKT, were”, “administered” for “administered intravenously”

| Compound | absolute weight of the tumor [1] | tumor volume (tumor growth) [1] | subjects survived ([2]; of 10 subjects, control 2 survived) | subjects died ([2]; control 8 died) | frequency of M2 macrophages (CD206) in tumor tissue (T cells or macrophages; FIG. 11C) | frequency of total macrophages (F4/80) in tumor tissue (T cells or macrophages; FIG. 11C) | frequency of cytotoxic T cells (CD8 T cells) in tumor tissue (T cells or macrophages; mouse, in vivo) | frequency of total T cells (CD4 T cells) in tumor tissue (T cells or macrophages; vs control or single administration groups, FIG. 11B) | tumor cell death in tumor tissue (H&E staining) [3] | CXCL10 mRNA expression level in tumor tissue (CXCL10) | tumor growth (tumor volume) ([4]; from day 11) | absolute weight of the tumor ([4]; tumor removed on day 15) |
| --- | --- | --- | --- | --- | --- | --- | --- | --- | --- | --- | --- | --- |
| AQTGTGKT [AQTGTGKT] | no significant difference between the tumor weight | no significant difference in tumor volume |  |  |  |  |  |  |  |  |  |  |
| C[C@H](NC(=O)c1cccc(-c2ccccc2)c1)C(=O)N[C@@H](CCC(N)=O)C(=O)N[C@H](C(=O)NCC(=O)N[C@H](C(=O)NCC(=O)N[C@@H](CCCCN)C(=O)N[C@H](C(=O)O)[C@@H](C)O)[C@@H](C)O)[C@@H](C)O [3-PhPh-AQTGTGKT] (HELM PEPTIDE1{[O=C(c1cccc(-c2ccccc2)c1)[*:2]].A.Q.T.G.T.G.K.T}$$$$V2.0) | lower than that of the control | tumor growth began to decrease compared to the control | 3 | 7 out of 10 subjects | no significant difference between the frequencies of macrophages | no significant difference between the frequencies of macrophages | no significant differences in the frequency of immune cells | no significant differences in the frequency of immune cells | some areas where tumor cells were killed were observed | similar | statistically significant decrease in tumor growth | lower than that of the control |
| C[C@H](NC(=O)c1ccc2ccccc2c1)C(=O)N[C@@H](CCC(N)=O)C(=O)N[C@H](C(=O)NCC(=O)N[C@H](C(=O)NCC(=O)N[C@@H](CCCCN)C(=O)N[C@H](C(=O)O)[C@@H](C)O)[C@@H](C)O)[C@@H](C)O [naphthyl-AQTGTGKT, Naphthyl-AQTGTGKT] (HELM PEPTIDE1{[O=C(c1ccc2ccccc2c1)[*:2]].A.Q.T.G.T.G.K.T}$$$$V2.0) | no significant difference between the tumor weight | no significant difference in tumor volume |  |  |  |  |  |  |  |  |  |  |
